According to US20240360075A1, “N-SUBSTITUTED C6 CYCLYL CARBOXAMIDE COMPOUNDS AND USES THEREOF” (ALCON INC., priority 2023, published 2024):

Experiments:
[1] = molecular target: mouse cold-menthol receptor TRPM8 (Mus musculus, UniProt Q8R4D5); details: described by Behrendt et al.; cited from earlier work
TRPM8 = molecular target: T1, TRPM8 (Homo sapiens, UniProt Q7Z2W7); test: TRPM8 Human Transient Potential Ion Channel Cell Based Agonist Calcium Flux Assay (Eurofins Cerep item #3316); details: for Emax: control activator ligand icilin, read-out: Percent Agonist; for EC50: room temperature
T1 construct: purchased Eurofins (Cerep) item #3316
Source text: Compounds can be tested using the commercially available kit from Eurofins “TRPM8 Human Transient Potential Ion Channel Cell Based Agonist Calcium Flux Assay, Cerep” item #3316, or using the assay, referenced by Eurofins, and described in Behrendt et al. “Characterization of the mouse cold-menthol receptor TRPM8 and vanilloid receptor type-1 VR1 using a fluorometric imaging plate reader (FLIPR) assay,” Br J Pharmacol. 2004 Feb;141(4):737-45, which are each incorporated herein by reference. […] 4.
The assay is done at room temperature and measures calcium flux.

mouse cold-menthol receptor TRPM8, sequence (Q8R4D5 whole entry): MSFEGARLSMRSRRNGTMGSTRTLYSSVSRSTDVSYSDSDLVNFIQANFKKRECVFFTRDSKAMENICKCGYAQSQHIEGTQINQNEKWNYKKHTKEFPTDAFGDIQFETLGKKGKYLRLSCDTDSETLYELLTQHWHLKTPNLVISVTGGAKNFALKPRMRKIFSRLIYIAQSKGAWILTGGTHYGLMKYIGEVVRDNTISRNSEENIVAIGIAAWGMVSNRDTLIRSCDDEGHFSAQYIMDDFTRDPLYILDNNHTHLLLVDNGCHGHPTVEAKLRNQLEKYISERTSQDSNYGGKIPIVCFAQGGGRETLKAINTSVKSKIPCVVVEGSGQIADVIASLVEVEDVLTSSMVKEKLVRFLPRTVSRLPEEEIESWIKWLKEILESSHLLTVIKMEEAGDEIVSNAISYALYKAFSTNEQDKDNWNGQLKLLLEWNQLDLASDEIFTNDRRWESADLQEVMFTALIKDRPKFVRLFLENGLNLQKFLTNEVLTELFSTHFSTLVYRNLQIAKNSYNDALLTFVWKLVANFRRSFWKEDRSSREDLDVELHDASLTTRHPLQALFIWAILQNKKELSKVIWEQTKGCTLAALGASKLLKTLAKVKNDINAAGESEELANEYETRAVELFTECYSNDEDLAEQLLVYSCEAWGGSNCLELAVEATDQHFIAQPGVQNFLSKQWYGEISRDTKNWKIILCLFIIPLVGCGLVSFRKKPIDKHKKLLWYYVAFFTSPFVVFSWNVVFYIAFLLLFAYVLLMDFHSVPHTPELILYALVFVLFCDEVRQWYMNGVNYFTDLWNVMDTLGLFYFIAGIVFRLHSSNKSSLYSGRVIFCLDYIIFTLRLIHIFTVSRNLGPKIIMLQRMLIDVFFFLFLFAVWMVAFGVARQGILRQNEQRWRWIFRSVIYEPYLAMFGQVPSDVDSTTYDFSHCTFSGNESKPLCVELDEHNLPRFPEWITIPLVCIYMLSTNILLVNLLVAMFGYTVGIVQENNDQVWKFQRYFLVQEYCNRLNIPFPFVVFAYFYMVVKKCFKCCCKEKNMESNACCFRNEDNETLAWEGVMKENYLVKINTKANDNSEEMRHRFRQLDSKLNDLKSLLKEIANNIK
T1 sequence (Q7Z2W7 whole entry): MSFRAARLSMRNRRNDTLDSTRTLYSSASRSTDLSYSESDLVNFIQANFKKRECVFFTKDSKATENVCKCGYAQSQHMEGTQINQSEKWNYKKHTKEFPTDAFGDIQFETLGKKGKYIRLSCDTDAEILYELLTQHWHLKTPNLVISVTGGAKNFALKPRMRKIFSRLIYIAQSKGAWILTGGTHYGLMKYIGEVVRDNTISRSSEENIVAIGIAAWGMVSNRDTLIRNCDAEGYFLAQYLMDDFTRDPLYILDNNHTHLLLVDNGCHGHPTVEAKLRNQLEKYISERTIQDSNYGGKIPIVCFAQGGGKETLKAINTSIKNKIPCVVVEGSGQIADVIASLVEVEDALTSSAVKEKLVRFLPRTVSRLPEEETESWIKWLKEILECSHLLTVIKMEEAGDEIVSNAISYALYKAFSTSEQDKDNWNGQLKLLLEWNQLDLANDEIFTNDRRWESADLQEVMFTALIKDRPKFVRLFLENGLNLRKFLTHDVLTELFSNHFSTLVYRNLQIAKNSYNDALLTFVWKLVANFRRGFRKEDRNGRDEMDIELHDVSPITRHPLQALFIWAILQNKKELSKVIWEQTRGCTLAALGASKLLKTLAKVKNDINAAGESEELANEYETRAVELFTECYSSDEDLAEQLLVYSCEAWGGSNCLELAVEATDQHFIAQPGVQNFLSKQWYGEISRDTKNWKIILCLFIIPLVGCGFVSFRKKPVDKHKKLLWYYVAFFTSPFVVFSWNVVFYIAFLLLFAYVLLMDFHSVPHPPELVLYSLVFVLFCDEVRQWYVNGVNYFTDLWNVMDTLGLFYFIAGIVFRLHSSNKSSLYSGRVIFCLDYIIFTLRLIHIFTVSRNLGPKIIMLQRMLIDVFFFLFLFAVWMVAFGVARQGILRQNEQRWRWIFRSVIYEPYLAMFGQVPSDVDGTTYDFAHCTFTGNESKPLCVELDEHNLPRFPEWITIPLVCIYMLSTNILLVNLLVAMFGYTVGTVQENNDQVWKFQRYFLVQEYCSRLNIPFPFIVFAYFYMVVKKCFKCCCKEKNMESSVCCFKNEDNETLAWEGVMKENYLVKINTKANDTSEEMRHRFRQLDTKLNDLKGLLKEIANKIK

In the case of `CC(C)[C@H]1CC[C@H](C)C[C@@H]1O` [(+)menthol], the EC50 [1] is listed as 14.4 ± 1.3 µM.
In the case of `CC(C)[C@@H]1CC[C@@H](C)C[C@H]1O` [(−)menthol], the EC50 [1] is listed as 4.1 ± 1.3 µM.
With `CC(C)[C@@H]1CC[C@@H](C)C[C@H]1C(=O)Nc1cncc(Cl)c1` [Compound 80] the Emax (TRPM8) was greater than 75% and the EC50 (TRPM8) was less than 1 µM.
With `COc1ccc(NC(=O)[C@@H]2C[C@H](C)CC[C@H]2C(C)C)c(F)n1` [Compound 81] the Emax (TRPM8) was greater than 100% and the EC50 (TRPM8) was less than 0.1 µM.
`COc1ncc(NC(=O)[C@@H]2C[C@H](C)CC[C@H]2C(C)C)cc1F` [Compound 82] showed an Emax (TRPM8) greater than 75% and an EC50 (TRPM8) of less than 0.5 µM.
In the case of `CC(C)[C@@H]1CC[C@@H](C)C[C@H]1C(=O)Nc1ccncn1` [Compound 83], the Emax (TRPM8) is reported as greater than 75% and the EC50 (TRPM8) is reported as less than 5 µM.
`CC(C)[C@@H]1CC[C@@H](C)C[C@H]1C(=O)Nc1ccc(S(C)(=O)=O)nc1` [Compound 84] showed an Emax (TRPM8) greater than 75% and an EC50 (TRPM8) of less than 0.1 µM.
Work on `CC(C)[C@@H]1CC[C@@H](C)C[C@H]1C(=O)Nc1ccc(Cl)cn1` [Compound 86] yielded an Emax (TRPM8) greater than 100% and an EC50 (TRPM8) of less than 5 µM.
In the case of `COc1ncc(NC(=O)[C@@H]2C[C@H](C)CC[C@H]2C(C)C)cc1C` [Compound 88], the Emax (TRPM8) is reported as greater than 35% and the EC50 (TRPM8) is reported as less than 5 µM.
With `CC(C)[C@@H]1CC[C@@H](C)C[C@H]1C(=O)NCC1CC1(F)F` (stereo partly shown) [Compound 89] the Emax (TRPM8) was greater than 75% and the EC50 (TRPM8) was less than 1 µM.
For `CC(C)[C@@H]1CC[C@@H](C)C[C@H]1C(=O)NCCC1CC1(F)F` (stereo partly shown) [Compound 91], the Emax (TRPM8) was greater than 75% and the EC50 (TRPM8) was less than 1 µM.
Work on `CC(C)[C@@H]1CC[C@@H](C)C[C@H]1C(=O)NCC1(C#N)CC1` [Compound 93] yielded an Emax (TRPM8) greater than 75% and an EC50 (TRPM8) of less than 10 µM.
`CC(C)[C@@H]1CC[C@@H](C)C[C@H]1C(=O)N[C@H]1CCC(F)(F)C1` [Compound 94] gave an Emax (TRPM8) greater than 75% and an EC50 (TRPM8) of less than 0.5 µM.
`CC(C)[C@@H]1CC[C@@H](C)C[C@H]1C(=O)N1CC(C)(CC(F)F)C1` [Compound 95] showed an EC50 (TRPM8) greater than 10 µM.
For `CC(C)[C@@H]1CC[C@@H](C)C[C@H]1C(=O)NCC#N` [Compound 97], the EC50 (TRPM8) was greater than 10 µM.
`CC(C)[C@@H]1CC[C@@H](C)C[C@H]1C(=O)N[C@@H]1CCC(F)(F)C1` [Compound 98] showed an Emax (TRPM8) greater than 75% and an EC50 (TRPM8) of less than 0.5 µM.
Compound `CC(C)[C@@H]1CC[C@@H](C)C[C@H]1C(=O)NCCC#N` [Compound 99] has an Emax (TRPM8) greater than 75% and an EC50 (TRPM8) of less than 10 µM.
Compound `CC(C)[C@@H]1CC[C@@H](C)C[C@H]1C(=O)NN1CCOCC1` [Compound 100] has an Emax (TRPM8) greater than 35%.
Compound `C#CCNC(=O)[C@@H]1C[C@H](C)CC[C@H]1C(C)C` [Compound 101] has an Emax (TRPM8) greater than 75% and an EC50 (TRPM8) of less than 5 µM.
`CC(C)[C@@H]1CC[C@@H](C)C[C@H]1C(=O)NC1CCC(S(C)(=O)=O)C1` (stereo partly shown) [Compound 106] showed an Emax (TRPM8) greater than 50% and an EC50 (TRPM8) of less than 10 µM.
Work on `C=C(C)[C@@H]1CC[C@@H](C)C[C@H]1C(=O)Nc1ccc(OC)cc1` [Compound 107] yielded an Emax (TRPM8) greater than 100% and an EC50 (TRPM8) of less than 0.5 µM.
In the case of `COc1ccc(NC(=O)[C@@H]2C[C@H](C)CC[C@H]2C(C)=O)cc1` [Compound 108], the Emax (TRPM8) is reported as greater than 5% and the EC50 (TRPM8) is reported as greater than 10 µM.
Work on `COC(=O)C12CC(NC(=O)c3cc(C)ccc3C(C)C)(C1)C2` [Compound 170] yielded an Emax (TRPM8) greater than 75% and an EC50 (TRPM8) of less than 5 µM.
With `COC12CCC(NC(=O)[C@H]3CCC[C@@H](N)C3)(CC1)CC2` [Compound 171] the EC50 (TRPM8) was greater than 10 µM.
For `COC12CCC(NC(=O)c3cc(Cl)ccc3C(C)C)(CC1)CC2` [Compound 172], the Emax (TRPM8) was greater than 100% and the EC50 (TRPM8) was less than 3 µM.
`COC12CCC(NC(=O)[C@H]3CCC[C@@H](NC(C)=O)C3)(CC1)CC2` [Compound 173] showed an EC50 (TRPM8) greater than 10 µM.
With `COc1ccc(NC(=O)c2cccc(C(F)(F)F)c2)cc1` [Compound 174] the EC50 (TRPM8) was greater than 10 µM.
Work on `COc1ccc(NC(=O)[C@H]2CCC[C@@H](O)C2)cc1` [Compound 177] yielded an EC50 (TRPM8) greater than 10 µM.
In the case of `C=C(C)[C@@H]1CC[C@@H](C)C[C@H]1O` [Coolact P], the EC50 [1] is listed as 66 ± 20 µM.
For `CC(O)C(=O)O[C@@H]1C[C@H](C)CC[C@H]1C(C)C` (stereo partly shown) [FrescolatML], the EC50 [1] is listed as 3.3 ± 1.5 µM.
For `C[C@@H]1CC[C@@H](C(C)(C)O)[C@H](O)C1` [PMD38], the EC50 [1] is given as 31 ± 1.1 µM.
For `CCNC(=O)C1CC(C)CCC1C(C)C` (stereo not shown) [WS-3], the EC50 [1] is given as 3.7 ± 1.7 µM.
For `CNC(=O)C(C)(C(C)C)C(C)C` [WS-23], the EC50 [1] is listed as 44 ± 7.3 µM.
